From ChEMBL document CHEMBL1944563, “Separation of Betti Reaction Product Enantiomers: Absolute Configuration and Inhibition of Botulinum Neurotoxin A” (ACS Med Chem Lett, 2011)

Columns and labels:
[1] = target: Botulinum neurotoxin type A (Clostridium botulinum (strain Hall / ATCC 3502 / NCTC 13319 / Type A)) (UniProt P0DPI1); test: Inhibition of Clostridium botulinum Hall BoNT/A light chain using SNAP-25 (187 to 203) as substrate at 20 uM by HPLC analysis; conditions: Clostridium botulinum A str. Hall
Sequence of Botulinum neurotoxin type A (Clostridium botulinum (strain Hall / ATCC 3502 / NCTC 13319 / Type A)) (P0DPI1 2-448 limits assumed): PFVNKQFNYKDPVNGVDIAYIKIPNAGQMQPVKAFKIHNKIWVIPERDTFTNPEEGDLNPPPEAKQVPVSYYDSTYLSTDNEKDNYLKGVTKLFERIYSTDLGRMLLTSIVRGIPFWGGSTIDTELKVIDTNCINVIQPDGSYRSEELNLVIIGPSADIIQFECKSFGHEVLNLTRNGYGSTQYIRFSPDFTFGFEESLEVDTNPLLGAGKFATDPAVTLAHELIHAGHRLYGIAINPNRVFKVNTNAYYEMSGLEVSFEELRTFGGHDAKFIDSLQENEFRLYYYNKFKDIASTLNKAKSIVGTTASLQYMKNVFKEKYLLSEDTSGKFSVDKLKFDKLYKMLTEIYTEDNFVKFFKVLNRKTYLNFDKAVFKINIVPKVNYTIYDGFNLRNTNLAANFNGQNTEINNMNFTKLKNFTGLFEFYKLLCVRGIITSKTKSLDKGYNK

[2] = target: Botulinum neurotoxin type A (Clostridium botulinum (strain Hall / ATCC 3502 / NCTC 13319 / Type A)) (UniProt P0DPI1); test: Inhibition of Clostridium botulinum Hall BoNT/A light chain using SNAP-25 (187 to 203) as substrate at 5 uM by HPLC analysis; conditions: Clostridium botulinum A str. Hall
[3] = target: Botulinum neurotoxin type A (Clostridium botulinum (strain Hall / ATCC 3502 / NCTC 13319 / Type A), UniProt P0DPI1); test: Inhibition of Clostridium botulinum Hall BoNT/A light chain using SNAP-25 (187 to 203) as substrate by HPLC analysis; parameters: species or system Clostridium botulinum A str. Hall
Sequence of Botulinum neurotoxin type A (P0DPI1 2-448 limits assumed): as above

[4] = target: Botulinum neurotoxin type A (Clostridium botulinum (strain Hall / ATCC 3502 / NCTC 13319 / Type A)) (UniProt P0DPI1); test: Inhibition of Clostridium botulinum Hall BoNT/A-induced toxicity in mouse Neuro2a cells assessed as inhibition of SNAP25 substrate cleavage at 60 uM by Western blotting; format: cell-based; conditions: Clostridium botulinum A str. Hall
[5] = target: Botulinum neurotoxin type A (Clostridium botulinum (strain Hall / ATCC 3502 / NCTC 13319 / Type A)) (UniProt P0DPI1); test: Inhibition of Clostridium botulinum Hall BoNT/A-induced toxicity in mouse Neuro2a cells assessed as inhibition of SNAP25 substrate cleavage at 45 uM by Western blotting; format: cell-based; conditions: Clostridium botulinum A str. Hall
[6] = target: Botulinum neurotoxin type A (Clostridium botulinum (strain Hall / ATCC 3502 / NCTC 13319 / Type A)) (UniProt P0DPI1); test: Inhibition of Clostridium botulinum Hall BoNT/A-induced toxicity in mouse Neuro2a cells assessed as inhibition of SNAP25 substrate cleavage at 30 uM by Western blotting; format: cell-based; conditions: Clostridium botulinum A str. Hall
[7] = target: Botulinum neurotoxin type A (Clostridium botulinum (strain Hall / ATCC 3502 / NCTC 13319 / Type A)) (UniProt P0DPI1); test: Inhibition of Clostridium botulinum Hall BoNT/A-induced toxicity in mouse Neuro2a cells assessed as inhibition of SNAP25 substrate cleavage at 15 uM by Western blotting; format: cell-based; conditions: Clostridium botulinum A str. Hall
[8] = target: Botulinum neurotoxin type A (Clostridium botulinum (strain Hall / ATCC 3502 / NCTC 13319 / Type A)) (UniProt P0DPI1); test: Inhibition of Clostridium botulinum Hall BoNT/A-induced paralysis in mouse phrenic nerve hemidiaphragm assessed as time required for loss of 50% twitch tension at 2 uM; conditions: Clostridium botulinum A str. Hall
[9] = target: Botulinum neurotoxin type A (Clostridium botulinum (strain Hall / ATCC 3502 / NCTC 13319 / Type A)) (UniProt P0DPI1); test: Inhibition of Clostridium botulinum Hall BoNT/A-induced paralysis in mouse phrenic nerve hemidiaphragm assessed as delay in paralytic half-time at 2 uM relative to control; conditions: Clostridium botulinum A str. Hall

Oc1c([C@H](Nc2ccccn2)c2ccccc2)cc(Cl)c2cccnc12
inhibition [1]: 94%
inhibition [2]: 90%
IC50 [3]: 1.1 µM
inhibition [4]: 96%
inhibition [5]: 94%
inhibition [6]: 89%
inhibition [7]: 56%
TIME [8]: 3.18 h
fold change (FC) [9]: 3

Oc1c([C@@H](Nc2ccccn2)c2ccccc2)cc(Cl)c2cccnc12
inhibition [1]: 91%
inhibition [2]: 90%
IC50 [3]: 1 µM
inhibition [4]: 96%
inhibition [5]: 93%
inhibition [6]: 69%
inhibition [7]: 54%
TIME [8]: 3.13 h
fold change (FC) [9]: 3

Oc1c(C(Nc2ccccn2)c2ccccc2)cc(Cl)c2cccnc12 (racemic)
inhibition [1]: 92%
inhibition [2]: 88%
IC50 [3]: 1.5 µM
inhibition [4]: 91%
inhibition [5]: 90%
inhibition [6]: 74%
inhibition [7]: 41%
